In ChEMBL document CHEMBL3991601, “The target landscape of clinical kinase drugs” (Science, 2017) one finds Kd data, which are given here for 17 compounds.

Calls of active or inactive are those of the source.

Experiment [1] has as its target Cyclin-dependent kinase 3 (Homo sapiens, UniProt Q00526).
The target of a further experiment is T1, Rab-like protein 3 (Homo sapiens, UniProt Q5HYI8).
T1 sequence (Q5HYI8 whole entry): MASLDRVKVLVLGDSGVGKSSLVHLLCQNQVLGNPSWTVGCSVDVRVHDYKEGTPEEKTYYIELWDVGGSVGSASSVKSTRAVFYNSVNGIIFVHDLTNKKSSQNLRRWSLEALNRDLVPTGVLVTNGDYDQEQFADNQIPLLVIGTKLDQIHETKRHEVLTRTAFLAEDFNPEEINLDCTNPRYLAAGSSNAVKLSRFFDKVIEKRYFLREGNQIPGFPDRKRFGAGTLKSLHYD

In experiment [2] the target is Serine/threonine-protein kinase SIK2 (Homo sapiens, UniProt Q9H0K1).
In experiment [3] the target is T2, Peroxisomal acyl-coenzyme A oxidase 1 (Homo sapiens, UniProt Q15067).
T2 sequence (Q15067 whole entry): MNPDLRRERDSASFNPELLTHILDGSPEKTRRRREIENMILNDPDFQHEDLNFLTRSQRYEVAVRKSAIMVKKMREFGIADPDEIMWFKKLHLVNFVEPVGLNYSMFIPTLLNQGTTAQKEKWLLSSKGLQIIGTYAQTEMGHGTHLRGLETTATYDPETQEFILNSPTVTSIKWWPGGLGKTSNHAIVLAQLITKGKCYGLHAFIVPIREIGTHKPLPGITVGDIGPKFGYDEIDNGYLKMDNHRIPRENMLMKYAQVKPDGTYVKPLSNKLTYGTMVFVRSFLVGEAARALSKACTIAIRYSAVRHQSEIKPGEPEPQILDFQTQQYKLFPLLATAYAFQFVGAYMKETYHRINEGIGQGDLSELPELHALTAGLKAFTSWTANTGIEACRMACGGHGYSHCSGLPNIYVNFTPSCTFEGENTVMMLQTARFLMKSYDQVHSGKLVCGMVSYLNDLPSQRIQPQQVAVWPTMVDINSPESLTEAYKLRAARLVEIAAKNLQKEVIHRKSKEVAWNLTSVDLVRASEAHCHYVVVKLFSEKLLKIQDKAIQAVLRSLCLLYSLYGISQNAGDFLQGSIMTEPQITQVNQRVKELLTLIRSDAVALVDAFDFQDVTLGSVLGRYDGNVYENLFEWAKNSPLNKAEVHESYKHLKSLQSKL

In experiment [4] the target is Eukaryotic translation initiation factor 2-alpha kinase 1 (Homo sapiens, UniProt Q9BQI3).
The target of the next experiment is T3, dCTP pyrophosphatase 1 (Homo sapiens, UniProt Q9H773).
T3 sequence (Q9H773 whole entry): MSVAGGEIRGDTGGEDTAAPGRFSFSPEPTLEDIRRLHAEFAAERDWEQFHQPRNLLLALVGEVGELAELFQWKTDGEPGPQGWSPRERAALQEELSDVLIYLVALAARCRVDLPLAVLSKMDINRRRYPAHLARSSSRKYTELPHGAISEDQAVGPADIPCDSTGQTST

Another experiment has as its target Actin-related protein 2 (Homo sapiens, UniProt P61160).
Also: in the data inactive means no Kd found up to 30 µM.

Serine/threonine-protein kinase SIK2, sequence (Q9H0K1 whole entry): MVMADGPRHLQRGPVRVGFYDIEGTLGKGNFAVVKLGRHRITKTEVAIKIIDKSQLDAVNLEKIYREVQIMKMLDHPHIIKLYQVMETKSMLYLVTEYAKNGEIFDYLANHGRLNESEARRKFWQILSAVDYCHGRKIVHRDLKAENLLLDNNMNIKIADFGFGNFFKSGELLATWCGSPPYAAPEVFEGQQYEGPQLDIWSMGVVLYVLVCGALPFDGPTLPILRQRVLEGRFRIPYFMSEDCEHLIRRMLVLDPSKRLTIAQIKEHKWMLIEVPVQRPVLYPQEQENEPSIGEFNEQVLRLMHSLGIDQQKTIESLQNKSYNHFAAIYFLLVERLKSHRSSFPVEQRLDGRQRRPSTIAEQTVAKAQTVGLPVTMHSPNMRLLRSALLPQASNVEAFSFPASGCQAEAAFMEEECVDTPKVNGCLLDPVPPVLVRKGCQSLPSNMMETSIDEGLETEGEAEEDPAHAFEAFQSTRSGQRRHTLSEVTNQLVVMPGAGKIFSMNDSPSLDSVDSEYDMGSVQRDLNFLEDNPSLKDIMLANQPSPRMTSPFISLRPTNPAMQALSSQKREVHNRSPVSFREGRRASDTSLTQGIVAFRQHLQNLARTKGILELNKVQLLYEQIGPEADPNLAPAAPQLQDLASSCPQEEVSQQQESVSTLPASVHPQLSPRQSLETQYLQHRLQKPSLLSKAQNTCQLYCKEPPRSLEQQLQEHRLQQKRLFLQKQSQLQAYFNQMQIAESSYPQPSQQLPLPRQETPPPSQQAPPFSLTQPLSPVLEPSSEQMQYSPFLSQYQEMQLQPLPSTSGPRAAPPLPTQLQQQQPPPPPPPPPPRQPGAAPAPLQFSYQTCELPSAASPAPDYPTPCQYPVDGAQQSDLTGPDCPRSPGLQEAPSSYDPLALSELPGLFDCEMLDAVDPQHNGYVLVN
Cyclin-dependent kinase 3, sequence (Q00526 whole entry): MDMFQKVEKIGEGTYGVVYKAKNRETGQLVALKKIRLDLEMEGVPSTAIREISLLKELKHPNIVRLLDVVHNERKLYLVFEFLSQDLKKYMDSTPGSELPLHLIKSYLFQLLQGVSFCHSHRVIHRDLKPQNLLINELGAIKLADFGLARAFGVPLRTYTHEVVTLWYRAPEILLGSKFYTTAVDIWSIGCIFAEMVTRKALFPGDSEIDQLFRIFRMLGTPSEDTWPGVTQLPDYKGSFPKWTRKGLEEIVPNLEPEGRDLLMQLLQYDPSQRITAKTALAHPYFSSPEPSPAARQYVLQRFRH
Eukaryotic translation initiation factor 2-alpha kinase 1, sequence (Q9BQI3 whole entry): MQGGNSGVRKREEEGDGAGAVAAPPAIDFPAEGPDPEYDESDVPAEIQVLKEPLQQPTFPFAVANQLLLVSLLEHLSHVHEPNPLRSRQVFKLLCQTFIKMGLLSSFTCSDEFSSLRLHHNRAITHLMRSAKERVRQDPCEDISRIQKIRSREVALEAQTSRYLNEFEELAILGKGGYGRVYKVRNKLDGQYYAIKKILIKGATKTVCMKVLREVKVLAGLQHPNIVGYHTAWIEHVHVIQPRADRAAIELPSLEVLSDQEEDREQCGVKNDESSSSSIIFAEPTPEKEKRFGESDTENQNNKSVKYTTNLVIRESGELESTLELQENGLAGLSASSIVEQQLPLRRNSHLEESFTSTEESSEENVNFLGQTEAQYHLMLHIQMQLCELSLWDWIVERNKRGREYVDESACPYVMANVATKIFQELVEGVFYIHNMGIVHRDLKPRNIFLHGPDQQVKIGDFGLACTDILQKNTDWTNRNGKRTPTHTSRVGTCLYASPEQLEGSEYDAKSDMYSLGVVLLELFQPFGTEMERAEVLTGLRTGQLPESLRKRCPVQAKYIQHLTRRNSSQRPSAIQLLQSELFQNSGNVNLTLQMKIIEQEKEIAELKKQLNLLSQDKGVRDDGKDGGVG

Take `C[C@@H](Oc1cc(C(=O)Nc2ccc(C(=O)N3CCN(C)CC3)cc2)nnc1N)c1c(Cl)ccc(F)c1Cl`: the Kd (in experiment [1]; on Rab-like protein 3; in experiment [2]; in experiment [3]; in experiment [4]; on dCTP pyrophosphatase 1) was > 30 µM (inactive) throughout.

Consider `C[C@H]1CNCCCN1S(=O)(=O)c1cccc2cncc(F)c12`, for which the Kd (in experiment [1]; on Rab-like protein 3; at Actin-related protein 2; in experiment [2]; in experiment [3]; in experiment [4]) was > 30 µM (inactive) each time. For the same compound, at dCTP pyrophosphatase 1, the Kd was > 30 µM (inactive).

With `CCNC(=O)C#Cc1ccc2c(c1)NC(=O)/C2=C(\Nc1ccc(CN(C)C)cc1)c1ccccc1`, the dissociation constant Kd in experiment [1] is 0.897 µM (active); on Rab-like protein 3, > 30 µM (inactive); on Actin-related protein 2 it was > 30 µM (inactive); in experiment [2], 3.51 µM (active); in experiment [3], > 30 µM (inactive); in experiment [4], > 30 µM (inactive). Moreover, the Kd at dCTP pyrophosphatase 1 was > 30 µM (inactive).

Take `Cc1nc(NC(=O)N2CCC[C@H]2C(N)=O)sc1-c1ccnc(C(C)(C)C(F)(F)F)c1` [ALPELISIB]: the Kd (in experiment [1]; on Actin-related protein 2; in experiment [2]; in experiment [3]; in experiment [4]; at dCTP pyrophosphatase 1) was > 30 µM (inactive) throughout.

As to `COc1cc([C@@H]2c3cc4c(cc3[C@H](O)[C@H]3COC(=O)[C@@H]23)OCO4)cc(OC)c1OC` [AXL-1717], the Kd (in experiment [1]; at Rab-like protein 3; at Actin-related protein 2; in experiment [2]; in experiment [3]; in experiment [4]) was > 30 µM (inactive) in each case. The Kd on dCTP pyrophosphatase 1 was > 30 µM (inactive).

As to `CCn1c(C(=O)N(C2CC2)C2CC2)cc2c3c(ncn3C)c(Nc3cc(C)n(C)n3)nc21` [BMS-911543], the Kd (in experiment [1]; on Rab-like protein 3; at Actin-related protein 2; in experiment [2]; in experiment [3]; in experiment [4]) was > 30 µM (inactive) each time. Also, on dCTP pyrophosphatase 1, the Kd was > 30 µM (inactive).

`Cn1cc(C2=C(c3cn(C4CCN(Cc5ccccn5)CC4)c4ccccc34)C(=O)NC2=O)c2ccccc21` [ENZASTAURIN]: the Kd on Rab-like protein 3, at Actin-related protein 2 and at dCTP pyrophosphatase 1 was > 30 µM (inactive) each time.

Take `Cc1nc2cc(-n3ncc(C(=O)c4cc5ccccc5[nH]4)c3N)ccc2[nH]1` [FGFR INHIBITOR DEBIO 1347]: the Kd (in experiment [1]; at Rab-like protein 3; at Actin-related protein 2; in experiment [2]; in experiment [4]; on dCTP pyrophosphatase 1) was > 30 µM (inactive) each time.

As for `O=C(Nc1cc(C(F)(F)F)cc(C(F)(F)F)c1)c1cc(Cl)ccc1O` [IMD-0354], the Kd (in experiment [1]; on Rab-like protein 3; at Actin-related protein 2; in experiment [2]; in experiment [3]; in experiment [4]) was > 30 µM (inactive) in each case. Moreover, the Kd on dCTP pyrophosphatase 1 is > 30 µM (inactive).

Take `CNC(=O)c1nn(C)c2c1C(C)(C)Cc1cnc(Nc3ccc(N4CCN(C)CC4)cc3)nc1-2` [MILCICLIB]: the Kd in experiment [1] is > 30 µM (inactive); on Rab-like protein 3, > 30 µM (inactive); in experiment [2] it was 0.11 µM (active); in experiment [3], > 30 µM (inactive); in experiment [4] it was > 30 µM (inactive); at dCTP pyrophosphatase 1 it was 1.59 µM (active).

With `FC(F)(F)c1ccc(/C=C/c2nc(COc3ccc(CCCCn4ccnn4)cc3)co2)cc1` [MUBRITINIB], the Kd (in experiment [1]; on Rab-like protein 3; at Actin-related protein 2; in experiment [2]; in experiment [3]; in experiment [4]) was > 30 µM (inactive) throughout. The Kd at dCTP pyrophosphatase 1 is > 30 µM (inactive).

Regarding `COc1ncc(-c2ccc3nccc(-c4ccnnc4)c3c2)cc1NS(=O)(=O)c1ccc(F)cc1F` [OMIPALISIB], the Kd (in experiment [1]; at Rab-like protein 3; on Actin-related protein 2; in experiment [2]; in experiment [4]; at dCTP pyrophosphatase 1) was > 30 µM (inactive) each time.

With `CCCCCCCCCCCCCCCCCCOP(=O)([O-])OC1CC[N+](C)(C)CC1` [PERIFOSINE], the Kd (in experiment [1]; on Rab-like protein 3; at Actin-related protein 2; in experiment [2]; in experiment [3]; in experiment [4]) was > 30 µM (inactive) each time. For the same compound, the Kd at dCTP pyrophosphatase 1 was > 30 µM (inactive).

With `CC(=O)NCC(=O)N1[C@@H]2CC[C@H]1c1ccc(Nc3ncc(C(F)(F)F)c(NC4CCC4)n3)cc12` [PF-03814735], the Kd in experiment [1] is 1.53 µM (active); on Rab-like protein 3, > 30 µM (inactive); at Actin-related protein 2 it was > 30 µM (inactive); in experiment [2] it was 0.011 µM (active); in experiment [3] it was > 30 µM (inactive); in experiment [4] it was > 30 µM (inactive). In addition, on dCTP pyrophosphatase 1, the Kd is > 30 µM (inactive).

In the case of `N#CC[C@H](C1CCCC1)n1cc(-c2ncnc3[nH]ccc23)cn1` [RUXOLITINIB], the Kd (on Actin-related protein 2; in experiment [3]; on dCTP pyrophosphatase 1) was > 30 µM (inactive) each time.

As to `CCS(=O)(=O)c1cccc(-c2cc(C(=O)NC3CCN(C)CC3)c(C)c3[nH]c4ncc(C)cc4c23)c1` [TAK-901], the Kd was > 30 µM (inactive) in experiment [1]; > 30 µM (inactive) on Rab-like protein 3; > 30 µM (inactive) at Actin-related protein 2; 0.115 µM (active) in experiment [2]; > 30 µM (inactive) in experiment [3]; > 30 µM (inactive) in experiment [4]. The Kd at dCTP pyrophosphatase 1 is > 30 µM (inactive).

As for `O=C1NC(=O)[C@@H](c2cn3c4c(cccc24)CCC3)[C@@H]1c1c[nH]c2ccccc12` [TIVANTINIB], the Kd (in experiment [1]; on Rab-like protein 3; at Actin-related protein 2; in experiment [2]; in experiment [4]; on dCTP pyrophosphatase 1) was > 30 µM (inactive) each time.
